# Assay results from US20170253601A1, “Substituted Pyrrolidine Compounds” (EPIZYME, INC., priority 2014, published 2017).
# Molecular target: T1, SMYD2 (Homo sapiens, UniProt Q9NRG4)
# T1 construct: Full length SMYD2 (NP 064582.2) was cloned; His6 (N, cleaved yes); FLAG (N); made in house; host or cells: Sf9 insect cells
# Experiment: SMYD2 Biochemical Assay (3H-SAM, biotinylated peptide substrate, Flashplate)
# Conditions: IC50 values are an average of n = 1 to n = 50; read-out: SMYD2 Biochem IC50 (μM)*
# In short: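 Methyltransferase activity tracked as 3H transfer from 10 nM 3H-SAM to 60 nM biotinylated peptide, counted after streptavidin Flashplate capture and normalised to DMSO and 1000 uM SAH controls. Enzyme: 1.5 nM full-length Sf9-expressed SMYD2, 30 min compound pre-incubation at room temperature, in Bicine pH 7.6 buffer with 2% DMSO; reactions quenched with 600 uM unlabelled SAM; IC50 from 3- or 4-parameter fit.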
# T1 sequence (Q9NRG4 whole entry): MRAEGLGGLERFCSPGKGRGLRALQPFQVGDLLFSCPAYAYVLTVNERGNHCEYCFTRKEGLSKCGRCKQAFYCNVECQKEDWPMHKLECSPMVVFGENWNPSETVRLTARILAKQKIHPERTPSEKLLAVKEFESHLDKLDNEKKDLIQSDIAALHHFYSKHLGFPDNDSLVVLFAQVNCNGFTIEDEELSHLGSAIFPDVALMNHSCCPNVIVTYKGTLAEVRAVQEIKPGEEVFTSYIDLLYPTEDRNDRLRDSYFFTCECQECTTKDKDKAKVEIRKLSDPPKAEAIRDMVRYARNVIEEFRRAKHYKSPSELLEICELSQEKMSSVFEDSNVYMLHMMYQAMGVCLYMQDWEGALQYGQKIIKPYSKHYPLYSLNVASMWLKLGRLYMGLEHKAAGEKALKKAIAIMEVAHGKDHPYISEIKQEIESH
row,IC50 [µM],Structure (SMILES)
1,> 50,"C[C@@H]1CN(c2ccccn2)C[C@H]1NC(=O)c1cc(C2CC2)on1 (racemic) [compound 312, (±)-trans-5-cyclopropyl-N-[4-methyl-1-(pyridin-2-yl)pyrrolidin-3-yl]-1,2-oxazole-3-carboxamide]"
2,> 50,"C[C@@H]1CN(c2ccncc2)C[C@H]1NC(=O)c1cc(C2CC2)on1 (racemic) [compound 313, (±)-trans-5-cyclopropyl-N-[4-methyl-1-(pyridin-4-yl)pyrrolidin-3-yl]-1,2-oxazole-3-carboxamide]"
3,> 50,"C[C@@H]1CN(c2ccnc(N)n2)C[C@H]1NC(=O)c1cc(C2CC2)on1 (racemic) [compound 314, (±)-trans-N-[1-(2-amino-pyrimidin-4-yl)-4-methylpyrrolidin-3-yl]-5-cyclopropyl-1,2-oxazole-3-carboxamide]"
4,> 50,"C[C@@H]1CN(c2ncccn2)C[C@H]1NC(=O)c1cc(C2CC2)on1 (racemic) [compound 315, (±)-trans-5-cyclopropyl-N-[4-methyl-1-(pyrimidin-2-yl)pyrrolidin-3-yl]-1,2-oxazole-3-carboxamide]"
5,> 50,"C[C@@H]1CN(c2ccncn2)C[C@H]1NC(=O)c1cc(C2CC2)on1 (racemic) [compound 316, (±)-trans-5-cyclopropyl-N-[4-methyl-1-(pyrimidin-4-yl)pyrrolidin-3-yl]-1,2-oxazole-3-carboxamide]"
6,1.14,"CC(c1ccccc1)N1C[C@H](C)[C@H](NC(=O)c2cc(C3CC3)on2)C1 (mixture of isomers) [compound 317, (±)-cis-5-cyclopropyl-N-[4-methyl-1-(1-phenyl-ethyl)pyrrolidin-3-yl]-1,2-oxazole-3-carboxamide]"
7,> 50,"C[C@H]1CN(c2ccccn2)C[C@H]1NC(=O)c1cc(C2CC2)on1 (racemic) [compound 318, (±)-cis-5-cyclopropyl-N-[4-methyl-1-(pyridin-2-yl)pyrrolidin-3-yl]-1,2-oxazole-3-carboxamide]"
8,> 50,"C[C@H]1CN(c2ccncc2)C[C@H]1NC(=O)c1cc(C2CC2)on1 (racemic) [compound 319, (±)-cis-5-cyclopropyl-N-[4-methyl-1-(pyridin-4-yl)pyrrolidin-3-yl]-1,2-oxazole-3-carboxamide]"
9,11.6,"Cc1nc[nH]c1CN1C[C@H](C)[C@H](NC(=O)c2cc(C3CC3)on2)C1 (racemic) [compound 320, (±)-cis-5-cyclopropyl-N-{4-methyl-1-[(4-methyl-1H-imidazol-5-yl)methyl]pyrrolidin-3-yl}-1,2-oxazole-3-carboxamide]"
10,4.64,"C[C@H]1CN(Cc2ccc(Cl)cc2Cl)C[C@H]1NC(=O)c1cc(C2CC2)on1 (racemic) [compound 321, (±)-cis-5-cyclopropyl-N-{1-[(2,4-dichloro-phenyl)methyl]-4-methylpyrrolidin-3-yl}-1,2-oxazole-3-carboxamide]"
11,> 50,"C[C@H]1CN(Cc2c(Cl)cccc2Cl)C[C@H]1NC(=O)c1cc(C2CC2)on1 (racemic) [compound 322, (±)-cis-5-cyclopropyl-N-{1-[(2,6-dichloro-phenyl)methyl]-4-methylpyrrolidin-3-yl}-1,2-oxazole-3-carboxamide]"
12,9.34,"C[C@H]1CN(Cc2c[nH]c3cc(Cl)ccc23)C[C@H]1NC(=O)c1cc(C2CC2)on1 (racemic) [compound 324, (±)-cis-N-{1-[(6-chloro-1H-indol-3-yl)methyl]-4-methylpyrrolidin-3-yl}-5-cyclopropyl-1,2-oxazole-3-carboxamide]"
13,> 50,"CC(=O)Nc1cccc(N2C[C@H](C)[C@H](NC(=O)c3cc(C4CC4)on3)C2)c1 (racemic) [compound 325, (±)-cis-5-cyclopropyl-N-[1-(3-acetamidophenyl)-4-methylpyrrolidin-3-yl]-1,2-oxazole-3-carboxamide]"
14,1.67,"Cc1nn(C)cc1CN1C[C@H](C)[C@H](NC(=O)c2cc(C3CC3)on2)C1 (racemic) [compound 326, (±)-cis-5-cyclopropyl-N-{1-[(1,3-dimethyl-1H-pyrazol-4-yl)methyl]-4-methylpyrrolidin-3-yl}-1,2-oxazole-3-carboxamide]"
